From paper PMC10147607, “MSI2 promotes translation of multiple IRES-containing oncogenes and virus to induce self-renewal of tumor initiating stem-like cells” (Cell Death Discovery, 2023)

Columns and labels:
[1] = molecular target: T1, MSI2 (full-length, wild type; recombinant MSI2) (Homo sapiens, UniProt Q96DH6); assay: ligand binding curve, probably MST (method for gossypol not stated explicitly)
T1 construct: full-length recombinant MSI2, purified; His6-tagged in EMSA (MSI2-His6)

[2] = molecular target: T1, MSI2 (full-length, wild type; recombinant MSI2); assay: microscale thermophoresis (MST); format: binding

T1 sequence (Q96DH6 whole entry): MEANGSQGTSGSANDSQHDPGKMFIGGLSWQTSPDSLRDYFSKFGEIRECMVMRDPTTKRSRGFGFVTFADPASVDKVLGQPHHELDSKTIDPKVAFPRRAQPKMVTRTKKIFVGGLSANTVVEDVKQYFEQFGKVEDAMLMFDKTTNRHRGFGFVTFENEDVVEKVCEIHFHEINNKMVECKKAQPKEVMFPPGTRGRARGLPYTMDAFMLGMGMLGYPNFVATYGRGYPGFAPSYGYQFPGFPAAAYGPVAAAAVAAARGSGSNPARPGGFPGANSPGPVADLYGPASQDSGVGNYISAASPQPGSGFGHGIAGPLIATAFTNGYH

Kd [2] [µM]	SMILES	Kd [1] [µM]
–	Cc1cc2c(C(C)C)c(O)c(O)c(C=O)c2c(O)c1-c1c(C)cc2c(C(C)C)c(O)c(O)c(C=O)c2c1O [Gossypol]	35
1.2	CC(C)(Sc1ccc(CCN(CCCCC2CCCCC2)C(=O)NC2CCCCC2)cc1)C(=O)O [GW7647]	–
